Measurements from ChEMBL document CHEMBL1129789, “Dopamine D3 and D4 receptor antagonists: synthesis and structure--activity relationships of (S)-(+)-N-(1-Benzyl-3-pyrrolidinyl)-5-chloro-4- [(cyclopropylcarbonyl) amino]-2-methoxybenzamide (YM-43611) and related compounds” (J Med Chem, 1996).
pKi: −log10 of the molar value.

How the values were obtained:
D(4) dopamine receptor = target: T1, D(4) dopamine receptor (Homo sapiens, UniProt P21917); test: biochemical
T1 sequence (P21917 whole entry): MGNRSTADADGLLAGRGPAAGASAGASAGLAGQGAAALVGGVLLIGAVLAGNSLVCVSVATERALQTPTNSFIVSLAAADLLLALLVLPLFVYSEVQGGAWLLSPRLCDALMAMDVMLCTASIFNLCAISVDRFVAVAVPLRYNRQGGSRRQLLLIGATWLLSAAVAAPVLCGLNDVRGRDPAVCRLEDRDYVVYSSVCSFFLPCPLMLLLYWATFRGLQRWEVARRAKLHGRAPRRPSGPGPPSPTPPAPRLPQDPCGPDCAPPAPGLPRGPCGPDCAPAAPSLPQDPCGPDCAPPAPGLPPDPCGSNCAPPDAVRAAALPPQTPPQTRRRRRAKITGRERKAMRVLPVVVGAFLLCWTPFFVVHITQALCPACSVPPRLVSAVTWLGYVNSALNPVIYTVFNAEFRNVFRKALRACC

[1] = target: T2, 5-hydroxytryptamine receptor 3A (Mus musculus, UniProt P23979)
T2 sequence (P23979 whole entry): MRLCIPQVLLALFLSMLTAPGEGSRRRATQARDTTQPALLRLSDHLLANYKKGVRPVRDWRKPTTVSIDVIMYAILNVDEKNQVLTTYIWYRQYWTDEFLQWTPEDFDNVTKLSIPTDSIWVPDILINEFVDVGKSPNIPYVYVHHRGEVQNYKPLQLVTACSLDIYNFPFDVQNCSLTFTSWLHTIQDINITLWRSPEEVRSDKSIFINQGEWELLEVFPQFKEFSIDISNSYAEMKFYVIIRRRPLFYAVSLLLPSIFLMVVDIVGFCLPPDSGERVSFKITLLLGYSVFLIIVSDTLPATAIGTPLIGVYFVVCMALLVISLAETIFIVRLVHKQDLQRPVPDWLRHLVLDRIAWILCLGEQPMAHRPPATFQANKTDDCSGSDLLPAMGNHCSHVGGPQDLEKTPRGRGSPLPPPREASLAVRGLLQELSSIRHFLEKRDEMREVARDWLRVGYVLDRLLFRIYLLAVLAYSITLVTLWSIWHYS

[2] = target: T3, Adrenergic receptor alpha-2 (Rattus norvegicus, UniProt P22086+P19328+P22909); test: Compound was tested for the Binding affinity against rat cortical Alpha-2 adrenergic receptor by Radio ligand ([3H]-Rx-821002) binding assay; assay type: protein assay
T3 sequence (P22086 whole entry): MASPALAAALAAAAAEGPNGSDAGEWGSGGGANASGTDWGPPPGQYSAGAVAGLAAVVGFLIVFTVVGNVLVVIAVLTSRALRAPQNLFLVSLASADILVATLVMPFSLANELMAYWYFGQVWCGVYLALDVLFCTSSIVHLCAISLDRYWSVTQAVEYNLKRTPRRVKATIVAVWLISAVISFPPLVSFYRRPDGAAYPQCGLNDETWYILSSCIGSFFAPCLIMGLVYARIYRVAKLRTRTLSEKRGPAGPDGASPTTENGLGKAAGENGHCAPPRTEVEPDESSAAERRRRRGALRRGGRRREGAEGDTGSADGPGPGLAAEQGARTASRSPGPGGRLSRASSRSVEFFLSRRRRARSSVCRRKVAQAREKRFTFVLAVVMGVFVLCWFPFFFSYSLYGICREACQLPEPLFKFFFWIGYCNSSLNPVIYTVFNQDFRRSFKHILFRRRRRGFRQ
T3 sequence (P19328 whole entry): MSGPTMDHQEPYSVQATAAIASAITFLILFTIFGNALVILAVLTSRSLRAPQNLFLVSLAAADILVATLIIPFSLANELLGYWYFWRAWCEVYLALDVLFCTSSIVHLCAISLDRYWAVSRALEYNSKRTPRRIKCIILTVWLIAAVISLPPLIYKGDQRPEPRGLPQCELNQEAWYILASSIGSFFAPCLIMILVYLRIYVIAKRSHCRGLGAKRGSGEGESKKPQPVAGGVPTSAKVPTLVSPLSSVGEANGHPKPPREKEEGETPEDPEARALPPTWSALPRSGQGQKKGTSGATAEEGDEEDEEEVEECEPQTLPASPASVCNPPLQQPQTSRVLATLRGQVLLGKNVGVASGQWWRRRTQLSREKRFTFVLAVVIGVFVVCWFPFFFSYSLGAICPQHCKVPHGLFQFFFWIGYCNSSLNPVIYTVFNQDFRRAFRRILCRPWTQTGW
T3 sequence (P22909 whole entry): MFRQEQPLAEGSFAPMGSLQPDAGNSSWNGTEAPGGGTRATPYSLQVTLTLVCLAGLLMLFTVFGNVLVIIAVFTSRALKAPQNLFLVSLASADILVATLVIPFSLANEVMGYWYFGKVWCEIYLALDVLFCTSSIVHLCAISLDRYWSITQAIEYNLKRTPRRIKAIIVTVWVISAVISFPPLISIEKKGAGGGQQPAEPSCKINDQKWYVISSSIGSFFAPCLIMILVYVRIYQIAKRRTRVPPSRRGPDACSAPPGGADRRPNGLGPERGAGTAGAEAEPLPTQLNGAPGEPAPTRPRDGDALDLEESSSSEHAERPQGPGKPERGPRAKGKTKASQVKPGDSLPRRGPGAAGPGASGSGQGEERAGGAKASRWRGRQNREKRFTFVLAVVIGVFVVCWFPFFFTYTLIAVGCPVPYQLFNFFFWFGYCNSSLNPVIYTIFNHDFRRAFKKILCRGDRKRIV

[3] = target: T4, 5-hydroxytryptamine receptor 1A (Rattus norvegicus, UniProt P19327); test: Compound was tested for the Binding affinity against rat hippocampal 5-hydroxytryptamine 1A receptor by Radio ligand [3H]8-OH-DPAT binding assay.; assay type: tissue-based, Hippocampus
T4 sequence (P19327 whole entry): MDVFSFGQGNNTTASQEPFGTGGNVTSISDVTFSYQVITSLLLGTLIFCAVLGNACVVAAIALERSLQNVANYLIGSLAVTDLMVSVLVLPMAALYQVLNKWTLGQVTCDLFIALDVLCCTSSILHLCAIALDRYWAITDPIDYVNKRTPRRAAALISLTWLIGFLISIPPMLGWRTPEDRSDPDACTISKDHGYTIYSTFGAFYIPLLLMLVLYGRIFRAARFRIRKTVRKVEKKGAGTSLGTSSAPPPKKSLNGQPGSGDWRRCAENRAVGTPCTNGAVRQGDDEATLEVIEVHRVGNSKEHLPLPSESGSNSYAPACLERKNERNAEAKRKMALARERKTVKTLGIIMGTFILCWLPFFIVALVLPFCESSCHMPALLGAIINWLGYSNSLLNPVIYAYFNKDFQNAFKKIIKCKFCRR

D(3) dopamine receptor = D(3) dopamine receptor (Rattus norvegicus, UniProt P19020); test: biochemical
Sequence of D(3) dopamine receptor (P19020 whole entry): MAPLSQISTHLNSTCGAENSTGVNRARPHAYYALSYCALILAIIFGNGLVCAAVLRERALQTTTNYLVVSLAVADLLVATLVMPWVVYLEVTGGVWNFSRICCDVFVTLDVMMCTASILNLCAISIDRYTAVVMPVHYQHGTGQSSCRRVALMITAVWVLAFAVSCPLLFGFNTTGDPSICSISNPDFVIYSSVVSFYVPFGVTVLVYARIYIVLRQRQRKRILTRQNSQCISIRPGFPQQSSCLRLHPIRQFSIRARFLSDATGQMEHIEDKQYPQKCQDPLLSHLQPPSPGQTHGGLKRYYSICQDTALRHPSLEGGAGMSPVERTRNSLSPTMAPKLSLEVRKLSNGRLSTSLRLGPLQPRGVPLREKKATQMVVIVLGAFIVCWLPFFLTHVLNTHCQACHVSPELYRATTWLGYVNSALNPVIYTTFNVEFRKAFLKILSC
Description: Binding affinity to rat Dopamine receptor D3 expressed in CHO cells was determined using [125 I] iodosulpride as radioligand

[4] = target: 5-hydroxytryptamine receptor 2A (Rattus norvegicus, UniProt P14842); test: biochemical
Sequence of 5-hydroxytryptamine receptor 2A (P14842 whole entry): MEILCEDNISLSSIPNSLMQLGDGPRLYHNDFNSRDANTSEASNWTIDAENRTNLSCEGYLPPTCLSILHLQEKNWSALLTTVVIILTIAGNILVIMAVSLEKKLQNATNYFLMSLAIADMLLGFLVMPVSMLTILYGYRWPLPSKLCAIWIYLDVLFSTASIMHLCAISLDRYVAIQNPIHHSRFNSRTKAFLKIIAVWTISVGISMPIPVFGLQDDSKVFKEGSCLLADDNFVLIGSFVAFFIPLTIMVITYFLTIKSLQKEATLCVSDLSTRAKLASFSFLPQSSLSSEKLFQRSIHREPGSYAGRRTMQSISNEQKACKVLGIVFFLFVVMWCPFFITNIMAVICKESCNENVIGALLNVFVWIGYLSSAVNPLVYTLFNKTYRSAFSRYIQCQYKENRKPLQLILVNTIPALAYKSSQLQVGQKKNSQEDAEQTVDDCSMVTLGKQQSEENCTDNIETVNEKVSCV

D(1A) dopamine receptor = D(1A) dopamine receptor (Homo sapiens, UniProt P21728); test: Compound was tested for the Binding affinity against Human cloned Dopamine receptor D1 by Radio ligand ([3H]SCH-23390) binding assay
Sequence of D(1A) dopamine receptor (P21728 whole entry): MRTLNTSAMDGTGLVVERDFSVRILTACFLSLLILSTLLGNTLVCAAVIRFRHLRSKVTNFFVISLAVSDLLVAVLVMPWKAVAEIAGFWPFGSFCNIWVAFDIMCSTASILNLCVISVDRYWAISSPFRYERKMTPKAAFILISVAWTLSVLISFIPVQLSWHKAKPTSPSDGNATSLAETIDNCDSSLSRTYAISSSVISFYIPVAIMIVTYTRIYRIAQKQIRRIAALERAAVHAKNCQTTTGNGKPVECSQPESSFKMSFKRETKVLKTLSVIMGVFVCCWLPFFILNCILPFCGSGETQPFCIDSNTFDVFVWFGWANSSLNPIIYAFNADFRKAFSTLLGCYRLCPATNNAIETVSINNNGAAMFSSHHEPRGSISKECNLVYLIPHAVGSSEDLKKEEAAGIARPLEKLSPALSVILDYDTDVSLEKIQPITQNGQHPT

COc1cc(NC(=O)C2CC2)c(Cl)cc1C(=O)N[C@H]1CCN(Cc2ccccc2)C1
pKi (D(4) dopamine receptor): 8.68
pKi [1]: 5.40
Ki [2]: 4.3 µM
pKi [3]: < 5.00
pKi (D(3) dopamine receptor): 7.68
pKi [4]: < 5.00
pKi (D(1A) dopamine receptor): < 5.00
